In article PMC12005229, “Final results from the phase Ia/Ib study of the novel bromodomain and extra-terminal domain inhibitor, BI 894999, in patients with advanced solid tumors or diffuse large B-cell lymphoma” (ESMO Open, 2025):

Tested on: patients with advanced solid tumors (SCLC, CRC, mCRPC, NUT carcinoma)
Assay: phase Ib expansion: DLTs, adverse events, exposure
[1] = phase Ib, NUT carcinoma total n = 42

Description: The primary endpoint for the phase Ib expansion was the number of patients who experienced DLTs during the study treatment period.
For fatigue at baseline, there had to be an increase of two or more grades.

`CNc1nc(-c2nc3ccc(N4CCN(C)CC4)cc3n2Cc2ccccc2)cn2c(C)nnc12` [BI 894999] was tested, and the “Vomiting, treatment-related AE, any grade” value (shortened to “Vomiting … any grade”) [1] was 0 n (%), the “Vomiting, treatment-related AE, grade ≥3” value [1] was 0 n (%) and the “Weight decrease, treatment-related AE, any grade” value (“Weight decrease … any grade” below) [1] was 0 n (%). For the same compound, the “Weight decrease, treatment-related AE, grade ≥3” value (“Weight decrease … grade ≥3” for short) [1] was 0 n (%), the “ALT increase, treatment-related AE, any grade” value (phase Ib, SCLC n = 12) was 1 (8.3) n (%) and the “ALT increase, treatment-related AE, grade ≥3” value (phase Ib, SCLC n = 12) was 0 n (%). For the same compound, the “Anemia, treatment-related AE, any grade” value (phase Ib, SCLC n = 12) was 0 n (%), the “Anemia, treatment-related AE, grade ≥3” value (phase Ib, SCLC n = 12) was 0 n (%) and the “Decreased appetite, treatment-related AE, any grade” value (phase Ib, SCLC n = 12) was 2 (16.7) n (%). For the same compound, the “Decreased appetite, treatment-related AE, grade ≥3” value (phase Ib, SCLC n = 12) was 1 (8.3) n (%), the “Decreased platelet count, treatment-related AE, any grade” value (phase Ib, SCLC n = 12) was 1 (8.3) n (%) and the “Decreased platelet count, treatment-related AE, grade ≥3” value (phase Ib, SCLC n = 12) was 0 n (%). The “Diarrhea, treatment-related AE, any grade” value (phase Ib, SCLC n = 12) was 3 (25.0) n (%), the “Diarrhea, treatment-related AE, grade ≥3” value (phase Ib, SCLC n = 12) was 0 n (%) and the “Dysgeusia, treatment-related AE, any grade” value (phase Ib, SCLC n = 12) was 3 (25.0) n (%). The “Dysgeusia, treatment-related AE, grade ≥3” value (phase Ib, SCLC n = 12) was 0 n (%), the “Epistaxis, treatment-related AE, any grade” value (phase Ib, SCLC n = 12) was 0 n (%) and the “Epistaxis, treatment-related AE, grade ≥3” value (phase Ib, SCLC n = 12) was 0 n (%). For the same compound, the “Fatigue, treatment-related AE, any grade” value (phase Ib, SCLC n = 12) was 4 (33.3) n (%), the “Fatigue, treatment-related AE, grade ≥3” value (phase Ib, SCLC n = 12) was 1 (8.3) n (%) and the “Nausea, treatment-related AE, any grade” value (phase Ib, SCLC n = 12) was 1 (8.3) n (%). The “Nausea, treatment-related AE, grade ≥3” value (phase Ib, SCLC n = 12) was 0 n (%), the “Number of patients with treatment-related AEs” value (phase Ib, SCLC n = 12) was 11 (91.7) n (%) and the “Thrombocytopenia, treatment-related AE, any grade” value (phase Ib, SCLC n = 12) was 5 (41.7) n (%). The “Thrombocytopenia, treatment-related AE, grade ≥3” value (phase Ib, SCLC n = 12) was 3 (25.0) n (%), the “Vomiting … any grade” value (phase Ib, SCLC n = 12) was 2 (16.7) n (%) and the “Vomiting, treatment-related AE, grade ≥3” value (phase Ib, SCLC n = 12) was 0 n (%). For the same compound, the “Weight decrease … any grade” value (phase Ib, SCLC n = 12) was 1 (8.3) n (%), the “Weight decrease … grade ≥3” value (phase Ib, SCLC n = 12) was 0 n (%) and the “anemia, grade ≥3 treatment-related AE” value (phase Ib, all 79 patients) was 15.2%. For the same compound, the “anemia, treatment-related AE” value (phase Ib, all 79 patients) was 22.8%, the “decreased appetite, treatment-related AE” value (phase Ib, all 79 patients) was 15.2% and the “decreased platelet count, grade ≥3 treatment-related AE” value (phase Ib, all 79 patients) was 11.4%. For the same compound, the “decreased platelet count, treatment-related AE” value (phase Ib, all 79 patients) was 25.3%, the “diarrhea, treatment-related AE” value (phase Ib, all 79 patients) was 29.1% and the “dysgeusia, treatment-related AE” value (phase Ib, all 79 patients) was 19.0%. For the same compound, the “fatigue, grade ≥3 treatment-related AE” value (phase Ib, all 79 patients) was 6.3%, the “fatigue, treatment-related AE” value (phase Ib, all 79 patients) was 27.8% and the “nausea, treatment-related AE” value (phase Ib, all 79 patients) was 12.7%. For the same compound, the “thrombocytopenia, grade ≥3 treatment-related AE” value (phase Ib, all 79 patients) was 20.3%, the “thrombocytopenia, treatment-related AE” value (phase Ib, all 79 patients) was 31.6% and the “vomiting, treatment-related AE” value (phase Ib, all 79 patients) was 12.7%. For the same compound, the “ALT increase, treatment-related AE, any grade” value (phase Ib, mCRPC n = 11) was 0 n (%), the “ALT increase, treatment-related AE, grade ≥3” value (phase Ib, mCRPC n = 11) was 0 n (%) and the “Anemia, treatment-related AE, any grade” value (phase Ib, mCRPC n = 11) was 4 (36.4) n (%). For the same compound, the “Anemia, treatment-related AE, grade ≥3” value (phase Ib, mCRPC n = 11) was 4 (36.4) n (%), the “Decreased appetite, treatment-related AE, any grade” value (phase Ib, mCRPC n = 11) was 4 (36.4) n (%) and the “Decreased appetite, treatment-related AE, grade ≥3” value (phase Ib, mCRPC n = 11) was 1 (9.1) n (%). For the same compound, the “Decreased platelet count, treatment-related AE, any grade” value (phase Ib, mCRPC n = 11) was 3 (27.3) n (%), the “Decreased platelet count, treatment-related AE, grade ≥3” value (phase Ib, mCRPC n = 11) was 1 (9.1) n (%) and the “Diarrhea, treatment-related AE, any grade” value (phase Ib, mCRPC n = 11) was 6 (54.5) n (%). For the same compound, the “Diarrhea, treatment-related AE, grade ≥3” value (phase Ib, mCRPC n = 11) was 0 n (%), the “Dysgeusia, treatment-related AE, any grade” value (phase Ib, mCRPC n = 11) was 4 (36.4) n (%) and the “Dysgeusia, treatment-related AE, grade ≥3” value (phase Ib, mCRPC n = 11) was 0 n (%). The “Epistaxis, treatment-related AE, any grade” value (phase Ib, mCRPC n = 11) was 2 (18.2) n (%), the “Epistaxis, treatment-related AE, grade ≥3” value (phase Ib, mCRPC n = 11) was 0 n (%) and the “Fatigue, treatment-related AE, any grade” value (phase Ib, mCRPC n = 11) was 4 (36.4) n (%). For the same compound, the “Fatigue, treatment-related AE, grade ≥3” value (phase Ib, mCRPC n = 11) was 0 n (%), the “Nausea, treatment-related AE, any grade” value (phase Ib, mCRPC n = 11) was 4 (36.4) n (%) and the “Nausea, treatment-related AE, grade ≥3” value (phase Ib, mCRPC n = 11) was 1 (9.1) n (%). For the same compound, the “Number of patients with treatment-related AEs” value (phase Ib, mCRPC n = 11) was 11 (100.0) n (%), the “Thrombocytopenia, treatment-related AE, any grade” value (phase Ib, mCRPC n = 11) was 5 (45.5) n (%) and the “Thrombocytopenia, treatment-related AE, grade ≥3” value (phase Ib, mCRPC n = 11) was 4 (36.4) n (%). For the same compound, the “Vomiting … any grade” value (phase Ib, mCRPC n = 11) was 5 (45.5) n (%), the “Vomiting, treatment-related AE, grade ≥3” value (phase Ib, mCRPC n = 11) was 0 n (%) and the “Weight decrease … any grade” value (phase Ib, mCRPC n = 11) was 2 (18.2) n (%). The “Weight decrease … grade ≥3” value (phase Ib, mCRPC n = 11) was 0 n (%), the “DLT grade 3 decreased appetite” value (phase Ib, on treatment) was 2.5% and the “DLT grade 3 fatigue” value (phase Ib, on treatment) was 3.8%. For the same compound, the “DLT grade 3 increased troponin T” value (phase Ib, on treatment) was 2.5%, the “DLT grade 4 decreased platelet count” value (phase Ib, on treatment) was 5.1% and the “DLT grade 4 thrombocytopenia” value (phase Ib, on treatment) was 10.1%. For the same compound, the “total patients with DLTs” value (phase Ib, schedule C 6.0/3.0 mg, on-treatment period) was “Phase Ib expansion: total patients with DLTs on BI 894999 (schedule C; 6.0/3.0 mg), n = 3”, the “AEs leading to death, each” value (phase Ib, COVID-19, pneumonia, sepsis, delirium, seizure, dyspnea, pulmonary hemorrhage, acute kidney injury) was 1.3% and the “other AEs leading to dose discontinuation, each” value (phase Ib, tumor hemorrhage, seizure, dyspnea, laryngeal inflammation, nausea, stomatitis, bladder dilation, urinary retention, increased ALT, increased AST, decreased platelet count, increased alkaline phosphatase) was 1.3%. The “AEs leading to death” value (solid tumors phase Ib n = 79) was 7 (8.9) n (%), the “AEs leading to discontinuation of trial drug” value (solid tumors phase Ib n = 79) was 11 (13.9) n (%) and the “AEs leading to dose reduction” value (solid tumors phase Ib n = 79) was 13 (16.5) n (%). For the same compound, the “Any AE” value (solid tumors phase Ib n = 79) was 79 (100) n (%), the “DLT in on-treatment period” value (solid tumors phase Ib n = 79) was 17 (21.5) n (%) and the “Treatment-related AEs” value (solid tumors phase Ib n = 79) was 66 (83.5) n (%). For the same compound, the “Treatment-related serious AEs” value (solid tumors phase Ib n = 79) was 17 (21.5) n (%).
